Read-outs that look alike come from different tables or passages of the source. Values belong to the molecule of their own block, whether it stands above or below them.
Key:
5-HT2A receptor = target: T1, 5-HT2A receptor (Homo sapiens, UniProt P28223); test: radioligand binding assay for 5-HT2A receptor ([3H]-ketanserin)
T1 construct: expressed in transfected cells; host or cells: CHO-K1 (or COS-7); alternatively human cortex tissue
Protocol: (§1) The effect of the compounds of the present invention on the neurochemical steady state was determined by in vitro investigations such as a radionuclide-marked radioligand binding assay for 5-HT2A (Bonhaus D. W. Br. J. Pharmacol. 1995, 115:622; Saucier C. J. Neurochem. 1997, 68:1998) and 5-HT2C receptors (Wolf W. A. J. Neurochem. 1997, 69:1449), in vitro binding assay for σ1 receptor (Thomson W. and Donn R. Arthritis Res. 2002, 4: 302-306) and by in vivo investigations in a tail suspension test (Vogel H. G. and Vogel W. H. Drug Discovery and Evaluation Pharmacological Assays, Springer 1997, 304), in amphethamine-induced hyperlocomotion in mice (Millan M. J. et al, 1998 J Pharmacol. Exp. Ther. 287: 167-186), in a forced swim test in mice (Porsolt R. D. et al. Arch. Int. Pharmacodyn. 1977, 229:327-336), in meta-chlorophenyl piperazine (m-CPP) test on rats (Drug Dev. Res. 1989, 18:119-144), and in apomorphine, tryptamine and norepinephrine (ATN) test in rats (Arch. Int. Pharmacodyn. 1977, 227:238-253).
(§2) A small concentration of a radioligand having a great affinity for binding to a receptor was incubated with a tissue sample enriched with a certain receptor (1-5 mg of tissue) in a buffered medium (0.2-5 mL). Recombinant human HT2A and HT2C receptors were expressed in CHO-K1 or COS-7 cells and were also used for competitive binding. During incubation the radioligand bound to the receptor. When a binding balance was achieved, the receptors to which the radioligand was bound were separated from those to which said ligand was not bound, and the radioactivity of the receptor/radioligand complex was measured. The interaction of the tested compounds with receptors was tested in competitive binding experiments. Various concentrations of tested compounds were added to the incubation mixture containing a prepared tissue enriched with corresponding receptors and the radioligand. The radioligand binding was inhibited by the test compounds proportionally to the affinity of a certain compound for the receptor and to the concentration of the compound.
(§3) The radioligand used for the determination of binding to 5-HT2A receptor was [^3H]-ketanserin and the tissue used was human cortex or recombinant 5-HT2A receptor expressed in CHO-K1 cells. The radioligand used for the determination of binding to 5-HT2C receptor was [^3H]-mesulergine and the tissue used was choroid plexus or recombinant 5-HT2C receptor expressed in CHO-K1 cells.

5-HT2C receptor = target: T2, 5-HT2C receptor (Homo sapiens, UniProt P28335); test: radioligand binding assay for 5-HT2C receptor ([3H]-mesulergine)
T2 construct: expressed in transfected cells; host or cells: CHO-K1 (or COS-7); alternatively choroid plexus tissue
T2 sequence (P28335 33-458): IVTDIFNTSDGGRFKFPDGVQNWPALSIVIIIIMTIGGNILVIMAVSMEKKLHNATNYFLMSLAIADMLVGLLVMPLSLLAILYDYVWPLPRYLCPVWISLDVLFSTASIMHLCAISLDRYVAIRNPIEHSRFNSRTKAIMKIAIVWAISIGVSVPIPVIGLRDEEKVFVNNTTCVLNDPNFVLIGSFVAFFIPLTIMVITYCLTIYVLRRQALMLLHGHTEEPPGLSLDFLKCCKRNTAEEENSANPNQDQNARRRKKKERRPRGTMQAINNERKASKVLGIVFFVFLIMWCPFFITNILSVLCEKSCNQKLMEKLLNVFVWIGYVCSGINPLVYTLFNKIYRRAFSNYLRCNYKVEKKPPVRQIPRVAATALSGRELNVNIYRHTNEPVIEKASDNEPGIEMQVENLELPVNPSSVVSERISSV
Protocol: as §1, §2, §3

σ1 receptor = target: T3, σ1 receptor (Homo sapiens, UniProt Q99720); test: in vitro binding assay for σ1 receptor, Jurkat cell membranes, [3H]haloperidol; settings: [3H]haloperidol 10 nM
T3 construct: endogenous in cells; host or cells: Jurkat cells (membrane fraction)
T3 sequence (Q99720 whole entry): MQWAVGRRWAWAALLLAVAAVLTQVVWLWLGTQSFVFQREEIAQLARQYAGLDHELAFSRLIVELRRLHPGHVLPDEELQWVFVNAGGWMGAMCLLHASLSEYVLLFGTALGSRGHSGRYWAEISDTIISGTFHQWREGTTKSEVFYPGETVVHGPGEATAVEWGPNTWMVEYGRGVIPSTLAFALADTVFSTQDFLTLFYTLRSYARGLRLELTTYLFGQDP
Protocol: as §1, with “227:238-253). […]” for “227:238-253).”
Binding of different radiolabeled ligans to Jurkat cell membranes was measured as described previously (Ramamoorthy et al., 1995). […]
Membranes were incubated with ligands in phosphate buffer for 3 hours at room temperature. After filter had been washed, radioactivity associated with the filter was determined by liquid scintillation spectrometry.

T1 sequence (P28223 whole entry): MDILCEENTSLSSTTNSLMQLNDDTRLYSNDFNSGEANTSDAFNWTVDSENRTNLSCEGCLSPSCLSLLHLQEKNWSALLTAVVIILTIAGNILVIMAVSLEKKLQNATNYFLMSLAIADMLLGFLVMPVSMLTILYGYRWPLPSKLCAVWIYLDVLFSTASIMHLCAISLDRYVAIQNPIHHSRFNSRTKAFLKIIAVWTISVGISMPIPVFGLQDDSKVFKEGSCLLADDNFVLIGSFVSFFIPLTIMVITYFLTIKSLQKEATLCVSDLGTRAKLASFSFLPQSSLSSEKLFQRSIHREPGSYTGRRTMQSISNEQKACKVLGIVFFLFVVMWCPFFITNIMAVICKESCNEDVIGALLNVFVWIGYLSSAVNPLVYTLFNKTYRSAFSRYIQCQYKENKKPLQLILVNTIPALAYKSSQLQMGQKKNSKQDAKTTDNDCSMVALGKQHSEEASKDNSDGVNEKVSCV

Compound: CN(C)CCCOCc1cc2c(s1)-c1cc3ccccc3cc1Sc1ccccc1-2
- IC50 (5-HT2A receptor): < 200 nM
- Ki (5-HT2A receptor): < 100 nM
- IC50 (5-HT2C receptor): < 200 nM
- Ki (5-HT2C receptor): < 100 nM

- IC50 (σ1 receptor; read-out: binding affinity to σ1 receptor expressed as IC50): < 200 nM
- Ki (σ1 receptor; read-out: binding affinity to σ1 receptor, Ki): < 100 nM
Compound: CC(CN(C)C)OCc1cc2c(s1)-c1cc3c(cc1Oc1ccccc1-2)CCCC3 (stereo not shown) [dimethyl-[2-(10,11,12,13-tetrahydro-8-oxa-1-thia-benzo[e]naphtho[3,2-h]azulen-2-ylmethoxy)-propyl]-amine]

- IC50 (5-HT2A receptor; [3H]-ketanserin, human cortex or recombinant 5-HT2A receptor in CHO-K1 cells, read-out: binding affinity to 5-HT2A serotonin receptor expressed as IC50): < 200 nM
- Ki (5-HT2A receptor; [3H]-ketanserin, human cortex or recombinant 5-HT2A receptor in CHO-K1 cells, read-out: binding affinity to 5-HT2A serotonin receptor, Ki): < 100 nM
- IC50 (5-HT2C receptor; [3H]-mesulergine, choroid plexus or recombinant 5-HT2C receptor in CHO-K1 cells, read-out: binding affinity to 5-HT2C serotonin receptor expressed as IC50): < 200 nM
- Ki (5-HT2C receptor; [3H]-mesulergine, choroid plexus or recombinant 5-HT2C receptor in CHO-K1 cells, read-out: binding affinity to 5-HT2C serotonin receptor, Ki): < 100 nM
Compound: CN(C)CCCOCc1cc2c(s1)-c1ccc3ccccc3c1Sc1ccccc1-2 [dimethyl-[3-(3,10-dithia-benzo[e]naphtho[1,2-h]azulen-2-ylmethoxy)-propyl]-amine]
